Columns and labels:
hEP3A/Gqi5 = molecular target: T1, hEP3A/Gqi5 (Homo sapiens, UniProt P43115); experiment: FLIPR calcium signal study, EP3A; format: cell-based; conditions: read-out: Other Receptors hEP3A EC50
T1 construct: expressed in transfected cells; host or cells: HEK-293(EBNA)
T1 sequence (P43115 1-390): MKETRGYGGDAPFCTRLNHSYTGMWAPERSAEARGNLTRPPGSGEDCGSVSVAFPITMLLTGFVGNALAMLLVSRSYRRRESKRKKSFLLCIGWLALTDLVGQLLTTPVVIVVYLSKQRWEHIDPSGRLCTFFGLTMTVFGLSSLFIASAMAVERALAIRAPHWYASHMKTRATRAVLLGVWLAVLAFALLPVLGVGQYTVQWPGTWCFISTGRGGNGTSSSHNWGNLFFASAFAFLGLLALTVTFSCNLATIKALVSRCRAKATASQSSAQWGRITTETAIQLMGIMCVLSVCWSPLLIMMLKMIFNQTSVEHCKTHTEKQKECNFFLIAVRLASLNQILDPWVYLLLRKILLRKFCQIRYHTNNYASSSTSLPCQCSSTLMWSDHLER
Experimental: HEK-293(EBNA) cells, stably expressing one type or subtype of recombinant human prostaglandin receptors (prostaglandin receptors expressed: hDP/Gqs5; hEP1; hEP2/Gqs5; hEP3A/Gqi5; hEP4/Gqs5; hFP; hIP; hTP), were cultured in 100 mm culture dishes in high-glucose DMEM medium containing 10% fetal bovine serum, 2 mM 1-glutamine, 250 μg/ml geneticin (G418) and 200 μg/ml hygromycin B as selection markers, and 100 units/ml penicillin G, 100 μg/ml streptomycin and 0.25 μg/ml amphotericin B.
Cells were seeded at a density of 5×10^4 cells per well in Biocoat® Poly-D-lysine-coated black-wall, clear-bottom 96-well plates (Becton-Dickinson) and allowed to attach overnight in an incubator at 37° C. Cells were then washed two times with HBSS-HEPES buffer (Hanks Balanced Salt Solution without bicarbonate and phenol red, 20 mM HEPES, pH 7.4) using a Denley Cellwash plate washer (Labsystems). […]
Cells were excited with an Argon laser at 488 nm, and emission was measured through a 510-570 nm bandwidth emission filter (FLIPR™, Molecular Devices, Sunnyvale, Calif.). […] The peak increase in fluorescence intensity was recorded for each well. […] The peak fluorescence change in each drug-containing well was then expressed relative to the controls. […]

EP2 [1] = molecular target: T2, EP2 (Homo sapiens, UniProt P43116); experiment: EP2 cAMP assay; format: cell-based
EP4 receptors = molecular target: T3, EP4 receptors (Homo sapiens, UniProt P35408); experiment: Radioligand binding vs [3H]PGE2, EP4
T3 construct: expressed in transfected cells; host or cells: HEK-293
Experimental: HEK-293 cells stably expressing the human or feline FP receptor, or EP1, EP2, or EP4 receptors were washed with TME buffer, scraped from the bottom of the flasks, and homogenized for 30 sec using a Brinkman PT 10/35 polytron. TME buffer was added to achieve a final 40 ml volume in the centrifuge tubes (the composition of TME is 100 mM TRIS base, 20 mM MgCl2, […]; 10N HCl is added to achieve a pH of 7.4).
The cell homogenate was centrifuged at 19000 r.p.m. for 20 min at 4° C. using a Beckman Ti-60 rotor. The resultant pellet was resuspended in TME buffer to give a final 1 mg/ml protein concentration, as determined by Biorad assay. Radioligand binding competition assays vs. [^3H-]17 phenyl PGF2α, (5 nM) were performed in a 1001μvolume for 60 min. Binding reactions were started by adding plasma membrane fraction. The reaction was terminated by the addition of 4 ml ice-cold TRIS-HCl buffer and rapid filtration through glass fiber GF/B filters using a Brandel cell harvester. The filters were washed 3 times with ice-cold buffer and oven dried for one hour.
[^3H-] PGE2 (specific activity 180 Ci mmol) was used as the radioligand for EP receptors. [^3H] 17-phenyl PGF2α was employed for FP receptor binding studies. […] 17-phenyl PGF2α and non-specific binding determined with 10^−5M of unlabeled PGE2, or 17-phenyl PGF2α, according to receptor subtype studied.

EP2 [2] = molecular target: T2, EP2; experiment: Competition binding vs [3H]PGE2, EP2; set-up: expressed in transfected cells; host or cells: HEK 293; conditions: HEK 293 cells stably expressing human EP2
Experimental: Competition binding experiments were performed in a medium containing Hank's balanced salt solution, Hepes 20 mM, pH 7.3, membranes (˜60 μg protein) or 2×10^5 cells from HEK 293 cells stably expressing human EP2 receptors, [^3H]PGE2 (10 nM) and various concentrations of test compounds in a total volume of 300 μl. Reaction mixtures were incubated at 23° C. for 60 min, and were filtered over Whatman GF/B filters under vacuum. Filters were washed three times with 5 ml ice-cold buffer containing 50 mM Tris/HCl (pH 7.3). Non-specific binding was estimated in the presence of excess unlabeled PGE2 (10 μM). Binding data fitted to the binding model for a single class of binding sites, using nonlinear regression analysis. IC50 values thus obtained were converted to Ki using the equation of Ki=(IC50/(1+[L]/KD) where [L] represents PGE2 concentration (10 nM) and KD the dissociation constant for [^3H]PGE2 at human EP2 receptors (40 nM). […]
The cell homogenate was centrifuged at 19000 r.p.m. for 20 min at 4° C. using a Beckman Ti-60 rotor. The resultant pellet was resuspended in TME buffer to give a final 1 mg/ml protein concentration, as determined by Biorad assay. […]
[^3H-] […] 17-phenyl PGF2α and non-specific binding determined with 10^−5M of unlabeled PGE2, or 17-phenyl PGF2α, according to receptor subtype studied.

T2 sequence (P43116 whole entry): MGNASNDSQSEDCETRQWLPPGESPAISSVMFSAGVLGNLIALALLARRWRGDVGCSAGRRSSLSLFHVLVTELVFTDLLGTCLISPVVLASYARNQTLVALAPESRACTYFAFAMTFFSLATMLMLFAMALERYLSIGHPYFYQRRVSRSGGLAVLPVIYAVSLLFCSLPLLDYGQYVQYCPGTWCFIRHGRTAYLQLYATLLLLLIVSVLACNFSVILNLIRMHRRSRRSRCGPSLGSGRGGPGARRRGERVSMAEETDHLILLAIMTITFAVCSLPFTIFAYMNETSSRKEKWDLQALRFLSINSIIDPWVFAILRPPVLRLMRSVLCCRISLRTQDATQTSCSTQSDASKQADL
T3 sequence (P35408 whole entry): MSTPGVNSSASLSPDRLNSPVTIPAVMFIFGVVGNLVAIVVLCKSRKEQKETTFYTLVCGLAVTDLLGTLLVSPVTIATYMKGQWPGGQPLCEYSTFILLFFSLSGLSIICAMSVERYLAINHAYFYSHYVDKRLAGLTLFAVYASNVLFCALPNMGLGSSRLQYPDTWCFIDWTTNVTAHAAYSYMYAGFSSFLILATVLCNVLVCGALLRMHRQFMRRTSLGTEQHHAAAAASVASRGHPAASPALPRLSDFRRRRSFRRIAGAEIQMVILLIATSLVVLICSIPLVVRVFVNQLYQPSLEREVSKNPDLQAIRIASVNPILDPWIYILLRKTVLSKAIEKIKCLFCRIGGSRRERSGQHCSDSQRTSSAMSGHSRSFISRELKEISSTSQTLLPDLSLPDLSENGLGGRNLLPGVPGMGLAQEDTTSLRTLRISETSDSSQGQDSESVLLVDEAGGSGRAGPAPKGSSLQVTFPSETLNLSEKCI

Row | EC50 (hEP3A/Gqi5) [µM] | EC50 (EP2 [1]) [µM] | Ki (EP4 receptors) [µM] | Ki (EP2 [2]) [µM] | SMILES
1 | 0.403 | 0.003 |  |  | CCCCCC(O)c1ccc(N2C(=O)CC[C@@H]2COCc2ccc(C(=O)O)s2)cc1 (stereo partly drawn) [Example 9, 5-{(R)-1-[4-(1-Hydroxy-hexyl)-phenyl]-5-oxo-pyrrolidin-2-ylmethoxymethyl}-thiophene-2-carboxylic acid]
2 | 0.519 |  |  |  | CCCCCCC(O)c1ccc(N2C(=O)CC[C@@H]2COCc2ccc(C(=O)O)s2)cc1 (stereo partly drawn) [Example 13, 5-{(R)-1-[4-(1-Hydroxy-heptyl)-phenyl]-5-oxo-pyrrolidin-2-ylmethoxymethyl}-thiophene-2-carboxylic acid]
3 |  |  | 3.84 |  | CCCCCCC(O)c1ccc(N2C(=O)CC[C@@H]2COCc2ccc(C(=O)O)s2)cc1 (single isomer, unassigned) [Example 34]
4 |  | 0.0009 |  | 0.01 | CCCCCCC(O)c1ccc(N2C(=O)CC[C@@H]2CCCc2ccc(C(=O)O)s2)cc1 (stereo partly drawn) [Example 36, 5-(3-{(S)-1-[4-(1-Hydroxy-heptyl)-phenyl]-5-oxo-pyrrolidin-2-yl}-propyl)-thiophene-2-carboxylic acid]

Reference: patent US7973071B2, “Substituted gamma lactams as therapeutic agents” (Allergan, Inc., priority 2005, dated 2011)
